# Measured values as given in patent publication US10849881B2, “Octahydro-cyclobuta[1,2-c;3,4-c′]dipyrrol-2-yl” (Hoffmann-La Roche Inc., priority 2013, dated 2020).
# Target: ATX (human His-tagged) (Homo sapiens (Human), UniProt Q13822)
# Assay: Human ATX enzyme inhibition assay (fluorescence quenching, MR121 substrate)
# Format: biochemical
# Details: 30 nM ATX, 1 μM MR121 substrate, 30° C., pH 8.0
# Procedure, shortened: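 Fluorescence quenching assay with MR121/tryptophan-labelled substrate analogue in Tris-HCl buffer (140 mM NaCl, CaCl2, MgCl2, 0.01% Triton X-100, pH 8.0). Serially diluted compounds were preincubated 15 min at 30 °C with 30 nM ATX (final), then 1 µM substrate (final) added and incubated 15 min at 30 °C.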
row,Molecule,IC50 [nM]
1,"O=C(c1cnc(OCC(F)(F)F)c(-c2ccco2)c1)N1C[C@@H]2[C@H](C1)[C@H]1CN(C(=O)c3ccc4[nH]nnc4c3)C[C@@H]21 [Example 1.108, (1H-benzotriazol-5-yl)-{(3aS,3bS,6aR,6bR)-5-[5-furan-2-yl-6-(2,2,2-trifluoro-ethoxy)-pyridine-3-carbonyl]-octahydro-cyclobuta[1,2-c;3,4-c′]dipyrrol-2-yl}-methanone]",6
2,"O=C(c1cnc(OCC(F)(F)F)c(Cl)c1)N1C[C@@H]2[C@H](C1)[C@H]1CN(C(=O)c3ccc4[nH]nnc4c3)C[C@@H]21 [Example 1.109, (1H-benzotriazol-5-yl)-{(3aS,3bS,6aR,6bR)-5-[5-chloro-6-(2,2,2-trifluoro-ethoxy)-pyridine-3-carbonyl]-octahydro-cyclobuta[1,2-c;3,4-c′]dipyrrol-2-yl}-methanone]",301
3,"CCOc1cc(C(=O)N2C[C@@H]3[C@H](C2)[C@H]2CN(C(=O)c4ccc5[nH]nnc5c4F)C[C@@H]32)nc2ccccc12 [Example 1.110, [(3aS,3bR,6aS,6bR)-5-(4-ethoxy-quinoline-2-carbonyl)-octahydro-cyclobuta[1,2-c;3,4-c′]dipyrrol-2-yl]-(4-fluoro-1H-benzotriazol-5-yl)-methanone]",32.5
4,"CS(=O)(=O)c1cc(C(=O)N2C[C@@H]3[C@H]4CN(C(=O)c5ccccc5)C[C@H]4[C@@H]3C2)cnc1OCC(F)(F)F [Example 1.111, {(3aS,3bS,6aR,6bR)-5-[5-methanesulfonyl-6-(2,2,2-trifluoro-ethoxy)-pyridine-3-carbonyl]-octahydro-cyclobuta[1,2-c;3,4-c′]dipyrrol-2-yl}-phenyl-methanone]",330
5,"O=C(OCc1ccc(OC(F)(F)F)cc1)N1C[C@@H]2[C@H](C1)[C@H]1CN(C(=O)c3ccc4[nH]nnc4c3)C[C@@H]21 [Example 2, (3aR,3bS,6aR,6bS)-5-(1H-Benzotriazole-5-carbonyl)-octahydro-cyclobuta[1,2-c;3,4-c′]dipyrrole-2-carboxylic acid 4-trifluoromethoxy-benzyl Ester]",14
6,"O=C(OCc1cc(Cl)cc(Cl)c1)N1C[C@@H]2[C@H](C1)[C@H]1CN(C(=O)c3ccc4[nH]nnc4c3)C[C@@H]21 [Example 2.001, (3aR,3bS,6aR,6bS)-5-(1H-Benzotriazole-5-carbonyl)-octahydro-cyclobuta[1,2-c;3,4-c′]dipyrrole-2-carboxylic Acid 3,5-dichloro-benzyl Ester]",4.5
7,"O=C(c1ccc2[nH]nnc2c1)N1C[C@@H]2[C@H](C1)[C@H]1CN(S(=O)(=O)c3ccc(-c4ccc(F)cc4)cc3)C[C@@H]21 [Example 3, (1H-Benzotriazol-5-yl)-[(3aS,3bR,6aS,6bR)-5-(4′-fluoro-biphenyl-4-sulfonyl)-octahydro-cyclobuta[1,2-c;3,4-c′]dipyrrol-2-yl]-methanone]",173
8,"O=C(c1ccc2[nH]nnc2c1)N1C[C@@H]2[C@H](C1)[C@H]1CN(S(=O)(=O)c3ccc4cc(Cl)ccc4c3)C[C@@H]21 [Example 3.001, (1H-Benzotriazol-5-yl)-[(3aS,3bR,6aS,6bR)-5-(6-chloro-naphthalene-2-sulfonyl)-octahydro-cyclobuta[1,2-c;3,4-c′]dipyrrol-2-yl]-methanone]",232
9,"O=C(c1ccc2[nH]nnc2c1)N1C[C@@H]2[C@H](C1)[C@H]1CN(C(=O)N3CCc4cc(C(F)(F)F)ccc4C3)C[C@@H]21 [Example 4, [(3aR,3bS,6aR,6bS)-5-(1H-Benzotriazole-5-carbonyl)-octahydro-cyclobuta[1,2-c;3,4-c′]dipyrrol-2-yl]-(6-trifluoromethyl-3,4-dihydro-1H-isoquinolin-2-yl)-methanone]",70
10,"(1H-benzotriazol-yl)-{(3aS,3bS,6aR,6bR)-5-[5-bromo-2-methyl-6-(2,2,2-trifluoro-ethoxy)-pyridine-3-carbonyl]-octahydro-cyclobuta[1,2-c;3,4-c′]dipyrrol-2-yl}-methanone [Example 1.103]",27
